According to publication PMC11999338, “Factor XI localization in human deep venous thrombus and function of activated factor XI on venous thrombus formation and hemostasis” (Research and Practice in Thrombosis and Haemostasis, 2025):
“Also recorded” adds a separate entry of the source.

Key:
[1] = tested on: PT and aPTT; test: Coagulation parameters (PT, aPTT) after oral administration in rabbits, denudation/stenosis model; type: in vivo, rabbit
Procedure: The protocols of the venous thrombosis and skin bleeding models in rabbits were as follows (Supplementary Figure 2). First, fasting rabbits were orally administered a solvent as a control (n = 10), a FXIa inhibitor (ONO-1600586, 5 mg/kg, n = 10; 15 mg/kg, n = 10; and 50 mg/kg, n = 11), or a FXa inhibitor (rivaroxaban, 1.5 mg/kg, 5 mg/kg, and 15 mg/kg, n = 10 each) using a Nelaton catheter of 5 mm diameter (IZUMO Health Co, Ltd) 90 minutes before thrombus formation. The thrombus formation and bleeding were performed under general anesthesia through the subcutaneous injection of a mixture of medetomidine hydrochloride (0.08 mg/kg body weight), butorphanol tartrate (0.2 mg/kg), and midazolam (0.4 mg/kg). Additional anesthesia with one-third amount of the above-mentioned mixture of drugs was administered 80 minutes after the first injection, and all surgical operations proceeded under aseptic conditions.
Blood samples were collected from the central ear arteries of rabbits before and 75 minutes and 4.5 hours after the administration of the solvent, ONO-1600586, and rivaroxaban in 3.8% sodium citrate (9:1 v/v) using 21-gauge needles. Plasma samples were centrifuged at 1500 × g for 15 minutes at room temperature. Prothrombin time (PT) and activated partial thromboplastin time (aPTT) were measured using a coagulation timer (KC-1 Delta, Tcoag Ireland Ltd) and reagents (aPTT: ACTIN, Siemens; PT: THROMBOCHECK PT+, Sysmex).

[2] = tested on: thrombi on the collagen surface; test: Ex vivo rabbit blood perfusion in flow chamber on collagen surface (70/s); type: cell-based; details: rabbit blood 75 minutes after oral ONO-1600586 50 mg/kg or rivaroxaban 15 mg/kg, shear rate 70/s
Procedure: Blood from rabbits 75 minutes postadministration of a solvent as a control (n = 5), a FXIa inhibitor (ONO-1600586, 50 mg/kg, n = 5), or a FXa inhibitor (rivaroxaban, 15 mg/kg, n = 5) was collected using 21-gauge needles into plastic syringes containing corn trypsin inhibitor (Molecular Innovations; final concentration 20 μg/mL) and a specific FXa inhibitor, Arixtra (Organon Sanofi-Synthelabo, final concentration 6 μg/mL). Anticoagulated whole blood was stored at room temperature and used for perfusion studies within 1 hour of collection. Next, mepacrine (quinacrine dihydrochloride, Sigma-Aldrich, final concentration 5 μM) was added to the blood before perfusion for platelet labeling, which enables the visualization of platelet-surface interaction through epifluorescence videomicroscopy. Collagen from the horse tendon (Collagen Reagent HORM, Takeda Pharmaceutical, 20 μg/mL) was immobilized on glass coverslips (24 × 50 mm) in parallel-plate flow chambers, as previously described. Blood samples were perfused through the chamber using a syringe pump (KDS100, KD Scientific Inc) at a constant flow rate (15 mL/h) to achieve wall shear rates of 70/s. Platelets interacting with the immobilized collagen were visualized using an inverted stage epifluorescence microscope (IX71, OLYMPUS). Images were captured at 3, 6, and 9 minutes after perfusion with a photosensitive color CCD camera (DP70, Olympus), and surface covering areas were semiquantified using a morphometric analysis system (WinROOF, Mitani).
After perfusion, coverslips were immediately fixed in 95% alcohol for 1 hour at room temperature, stained using antibodies for fibrin (Millipore), and faintly counterstained with Meyer’s hematoxylin. […] Finally, the number of attached cells with multilobulated nuclei was counted as the neutrophil number in 5 fields under a 20× objective lens and expressed as the number of neutrophils per mm^2.

[3] = tested on: skin bleeding; test: Rabbit skin bleeding time and volume; type: in vivo; details: rabbits; for bleeding time / bleeding volume: skin incision 90 minutes after oral administration, ONO-1600586 5, 15, 50 mg/kg, rivaroxaban 1.5, 5, 15 mg/kg
Procedure: The protocols of the venous thrombosis and skin bleeding models in rabbits were as follows (Supplementary Figure 2). First, fasting rabbits were orally administered a solvent as a control (n = 10), a FXIa inhibitor (ONO-1600586, 5 mg/kg, n = 10; 15 mg/kg, n = 10; and 50 mg/kg, n = 11), or a FXa inhibitor (rivaroxaban, 1.5 mg/kg, 5 mg/kg, and 15 mg/kg, n = 10 each) using a Nelaton catheter of 5 mm diameter (IZUMO Health Co, Ltd) 90 minutes before thrombus formation. […] Additional anesthesia with one-third amount of the above-mentioned mixture of drugs was administered 80 minutes after the first injection, and all surgical operations proceeded under aseptic conditions. Ninety minutes after administering the solvent, rivaroxaban (1.5, 5, and 15 mg/kg), and ONO-1600586 (5, 15, and 50 mg/kg), skin bleeding was induced using 2 lines of 3 cm length incisions on both legs of the rabbit. Next, wet Kimwipes (Kimberly-Clark Corp) were placed on the injured lesions, and the bleeding time was measured. To measure the bleeding volume, we collected the Kimwipes into a falcon tube filled with 20 mL of saline each, 1 to 2 minutes for 30 minutes, and then removed the Kimwipes. The collected blood was centrifuged at 900 × g for 5 minutes at room temperature, and the supernatant was discarded. One milliliter of distilled water was added to the pellet and then hemolyzed. The bleeding volume was estimated using a spectrophotometer at 540 nm (SpectraMax 190 Microplate Reader, Molecular Devices, LLC). A standard curve was generated through the sequential dilution of rabbit blood. Finally, the number of erythrocytes was measured using a hematology analyzer (XP-300, Sysmex).

[4] = 75 minutes after oral administration, ONO-1600586 5, 15, 50 mg/kg, rivaroxaban 1.5, 5, 15 mg/kg
[5] = 4.5 hours after oral administration, ONO-1600586 50 mg/mL, rivaroxaban 15 mg/mL (so in the source)

bleeding time compared with the control ([3]; 15 mg/kg oral): significantly prolonged
bleeding volume compared with the control ([3]; 15 mg/kg oral): increased
bleeding time [3]: prolonged bleeding time
bleeding time ([3]; listed as Rivaroxaban): dose-dependently prolonged
bleeding volume ([3]; listed as Rivaroxaban): increased
SMILES: O=C(NC[C@H]1CN(c2ccc(N3CCOCC3=O)cc2)C(=O)O1)c1ccc(Cl)s1 [rivaroxaban]
PT after oral administration [1, 4]: dose-dependently prolonged
aPTT after oral administration [1, 4]: dose-dependently prolonged
PT after oral administration [1, 5]: prolonged
aPTT after oral administration [1, 5]: prolonged
fibrin formation (fibrin-immunopositive area) in the flow chamber [2]: markedly decreased; also recorded: Absence or little fibrin formation
neutrophil attachment on the thrombus [2]: did not affect
surface covering areas ([2]; 3, 6, 9 minutes): did not differ
bleeding volume [3]: increased bleeding volume dose-dependently
